Assay results as given in PubChem BioAssay (NCI).
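Following 48 hours of exposure in 96-well plates, responses at five concentrations were used to interpolate endpoints linearly. TGI denotes the concentration required for complete inhibition of growth.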

Legend:
Experiment in all cases: NCI tumour cell line growth inhibition, 48 h
[1] = tested on: 786-0 renal
[2] = tested on: A498 renal
[3] = tested on: A549 NSCLC
[4] = tested on: ACHN renal
[5] = tested on: CCRF-CEM leukemia
[6] = tested on: COLO 205 colon
[7] = tested on: DU-145 prostate
[8] = tested on: EKVX NSCLC
[9] = tested on: HCT-116 colon
[10] = tested on: HCT-15 colon
[11] = tested on: HL-60(TB) leukemia
[12] = tested on: HOP-62 NSCLC
[13] = tested on: HOP-92 NSCLC
[14] = tested on: HS 578T breast
[15] = tested on: IGROV1 ovarian
[16] = tested on: K-562 leukemia
[17] = tested on: KM12 colon
[18] = tested on: LOX IMVI melanoma
[19] = tested on: M14 melanoma
[20] = tested on: MALME-3M melanoma
[21] = tested on: MCF7 breast
[22] = tested on: MDA-MB-231 breast
[23] = tested on: MDA-MB-435
[24] = tested on: MDA-N
[25] = tested on: MOLT-4 leukemia
[26] = tested on: NCI-H226 lung
[27] = tested on: NCI-H23 lung
[28] = tested on: NCI-H522 lung
[29] = tested on: NCI/ADR-RES ovarian
[30] = tested on: OVCAR-3 ovarian
[31] = tested on: OVCAR-4 ovarian
[32] = tested on: OVCAR-5 ovarian
[33] = tested on: OVCAR-8 ovarian
[34] = tested on: PC-3 prostate
[35] = tested on: RPMI-8226 leukemia
[36] = tested on: SF-268 CNS
[37] = tested on: SF-295 CNS
[38] = tested on: SK-MEL-2 melanoma
[39] = tested on: SK-MEL-5 melanoma
[40] = tested on: SK-OV-3 ovarian
[41] = tested on: SN12C renal
[42] = tested on: SNB-19 CNS
[43] = tested on: SNB-75 CNS
[44] = tested on: SR leukemia
[45] = tested on: SW-620 colon
[46] = tested on: TK-10 renal
[47] = tested on: U251 CNS
[48] = tested on: UACC-62 melanoma
[49] = tested on: UO-31 renal
[50] = tested on: BT-549 breast
[51] = tested on: HCC-2998 colon
[52] = tested on: HT29 colon
[53] = tested on: NCI-H460 lung
[54] = tested on: RXF 393 renal
[55] = tested on: SF-539 CNS
[56] = tested on: SK-MEL-28 melanoma
[57] = tested on: T-47D breast
[58] = tested on: UACC-257 melanoma

CSC1=N/C(=C\c2ccc(C)cc2)C(=O)N1CN1CCOCC1
TGI [1]: > 100 µM | TGI [2]: > 100 µM | TGI [3]: > 100 µM | TGI [4]: > 100 µM | TGI [5]: > 100 µM | TGI [6]: > 100 µM | TGI [7]: > 100 µM | TGI [8]: > 100 µM | TGI [9]: > 100 µM | TGI [10]: > 100 µM | TGI [11]: > 100 µM | TGI [12]: > 100 µM | TGI [13]: > 100 µM | TGI [14]: > 100 µM | TGI [15]: > 100 µM | TGI [16]: > 100 µM | TGI [17]: > 100 µM | TGI [18]: > 100 µM | TGI [19]: > 100 µM | TGI [20]: > 100 µM | TGI [21]: > 100 µM | TGI [22]: > 100 µM | TGI [23]: > 100 µM | TGI [24]: > 100 µM | TGI [25]: > 100 µM | TGI [26]: > 100 µM | TGI [27]: > 100 µM | TGI [28]: > 100 µM | TGI [29]: > 100 µM | TGI [30]: > 100 µM | TGI [31]: 32.9 µM | TGI [32]: > 100 µM | TGI [33]: > 100 µM | TGI [34]: > 100 µM | TGI [35]: > 100 µM | TGI [36]: > 100 µM | TGI [37]: > 100 µM | TGI [38]: > 100 µM | TGI [39]: > 100 µM | TGI [40]: > 100 µM | TGI [41]: > 100 µM | TGI [42]: > 100 µM | TGI [43]: > 100 µM | TGI [44]: > 100 µM | TGI [45]: > 100 µM | TGI [46]: > 100 µM | TGI [47]: > 100 µM | TGI [48]: > 100 µM | TGI [49]: > 100 µM

Cc1ccc(C)c(NC(=O)C(=O)C(c2cnc3ccc([N+](=O)[O-])cc3n2)[N+](=O)[O-])c1 (stereo not given)
TGI [1]: > 100 µM | TGI [2]: 69 µM | TGI [3]: > 100 µM | TGI [4]: > 100 µM | TGI [50]: > 100 µM | TGI [5]: 79.1 µM | TGI [6]: > 100 µM | TGI [7]: > 100 µM | TGI [8]: > 100 µM | TGI [51]: > 100 µM | TGI [9]: > 100 µM | TGI [10]: > 100 µM | TGI [11]: 45.2 µM | TGI [12]: > 100 µM | TGI [13]: > 100 µM | TGI [14]: > 100 µM | TGI [52]: > 100 µM | TGI [15]: 83.8 µM | TGI [16]: > 100 µM | TGI [17]: > 100 µM | TGI [19]: > 100 µM | TGI [20]: > 100 µM | TGI [21]: > 100 µM | TGI [23]: > 100 µM | TGI [24]: > 100 µM | TGI [25]: > 100 µM | TGI [26]: > 100 µM | TGI [27]: > 100 µM | TGI [53]: > 100 µM | TGI [28]: > 100 µM | TGI [29]: 63.8 µM | TGI [30]: > 100 µM | TGI [31]: 38.2 µM | TGI [32]: > 100 µM | TGI [33]: 48.2 µM | TGI [34]: > 100 µM | TGI [35]: 39.4 µM | TGI [54]: > 100 µM | TGI [36]: > 100 µM | TGI [37]: > 100 µM | TGI [55]: > 100 µM | TGI [38]: > 100 µM | TGI [56]: > 100 µM | TGI [39]: > 100 µM | TGI [40]: > 100 µM | TGI [41]: > 100 µM | TGI [42]: > 100 µM | TGI [43]: > 100 µM | TGI [44]: > 100 µM | TGI [45]: > 100 µM | TGI [57]: > 100 µM | TGI [46]: > 100 µM | TGI [47]: > 100 µM | TGI [58]: > 100 µM | TGI [48]: > 100 µM | TGI [49]: > 100 µM
